Starred links: 1 amine or outer side, 2 acyl side, 3 side chain; linkers in the order of their positions; H or OH if unused. Positions of bridges follow the written chain, without caps; N, C: chain ends. Non-standard residues stand in square brackets, D forms with d. Residues, ends and D or L forms follow the SMILES beside them. ξ: configuration not given here. X2 = C[C@@](CCCCC=[*:3])(N[*:1])C(=O)[*:2]; Oic = O=C(O)[C@@H]1C[C@@H]2CCCC[C@@H]2N1; GABOB(3R) = O=C(C[C@@H](O)CN[*:1])[*:2]; d(tBuAla) = CC(C)(C)C[C@@H](N)C(=O)O; dVal(3-OH) = CC(C)(O)[C@@H](N)C(=O)O; tBuAla = CC(C)(C)C[C@H](N)C(=O)O; ξVal(3-OH) = CC(C)(O)C(N)C(=O)O; R5 = C=CCCC[C@@](C)(N)C(=O)O; X1 = O=C(CC(O)CN[*:1])[*:2]; 4Amb = NCc1ccc(C(=O)O)cc1
What was measured:
[1] = tested on: CD1 mice challenged with LD90 of LPS; experiment: Endotoxin-induced septic shock (LD90 LPS): survival and lung compliance; assay type: in vivo, mouse; conditions: for half maximal effective concentration (EC50) on the survival rate: LPS 30 mg/kg bw i.p. (LD90), i.v. once daily, three doses, from 20 hours after LPS, n = 10 mice per group
Experimental: To establish the effect of VT-109 on clinically translatable outcomes, we investigated its dose-dependent effect on survival rates in a murine model of septic shock (Fig. 5a, d). In experiments involving endotoxin-induced septic shock, mice were injected intraperitoneally with a lethal dose (LD) of LPS at 30 mg/kg bw, which caused 90% mortality. The treatment cohort of mice received i.v. VT-109 at doses ranging from 1 nmol/kg to 2 µmol/kg bw, which were administered once daily for a total of three doses. All the mice also received fluid resuscitation once a day for three days.
We next examined the effect of VT-109 on lung function at 250 nmol/kg bw, the dose that produced the greatest improvement in survival rates (Fig. 5a). Lung function was assessed by measuring lung compliance in mice challenged with a lethal dose of LPS (Fig. 5c). For the control, we used a non-effective dose of VT-109 at 1 nmol/kg bw, as 90% of the mice died before reaching 48 hours post-LPS treatment if left untreated. The 1 nmol/kg bw dose was not efficacious in our mortality studies but did delay death over a 48-hour period. Static lung compliance was measured at 10 cmH2O on the expiratory limb of a P‒V loop via the Salazar–Knowles equation[49].
In the survival studies, mice received i.p. corn oil at a dose of 0.35 mL two days before the challenge. CD1 mice were injected intraperitoneally with a lethal dose 90 (LD90) of LPS (Santa Cruz Biotechnology). In most experiments, this dose was 30 mg/kg bw; however, it was adjusted for each new batch of LPS in pilot studies. In the survival study, treatment with varying doses of VT-109 (1, 10, 100, 250, 500, and 2000 nmol/kg bw) was initiated 20 hours after the LPS challenge. In the lung compliance study, a non-efficacious dose (1 nmol/kg bw) of VT-109 was used as a control, while 250 nmol/kg bw of VT-109 was used for the experimental group. Both treatments were administered intravenously 20 hours after the LPS challenge. All mice received 1 mL of prewarmed saline daily for 3 days.

in vitro [2] = conditions: dog, plasma
Experimental: (§1) Stability assay of peptides in blood plasma of rodents, dogs, and humans. For the plasma stability assay, 5 μM of each peptide was incubated with species-specific plasma for 120 minutes and samples were taken at the required time points. Positive control used were molecules with known stability: enalapril, propantheline, and warfarin. The amount of test compound remaining at each time point was analyzed by LC-MS/MS. Appropriate control compounds for each species were also incubated.

Pseudomonas aeruginosa = experiment: I.t. P. aeruginosa-induced pneumonia; assay type: in vivo, mouse
Source text: Most ARDS cases arise secondary to pneumonia, in which infectious agents directly target the alveolar epithelium. Damage to these epithelial cells disrupts the integrity of the alveolar–capillary barrier, leading to protein-rich pulmonary edema and widespread inflammation, two hallmark features of diffuse alveolar damage. Because endothelial barrier disruption is a downstream consequence in this context, we also evaluated the benefits of VT-109 treatment in a model of Pseudomonas aeruginosa–induced lung injury, the most commonly acquired hospital-associated pneumonia. Mice were infected with a sublethal intratracheal dose of 5 × 10^5 CFU Pseudomonas aeruginosa and treated with a moderately efficacious dose of VT-109 (250 nmol/kg bw) at 5 hours post-challenge. The lung tissues were collected at 24 and 48 hours for histopathological analysis of acute lung injury, neutrophil influx, and bacterial counts in BALF (Fig. 5k–n and Supplementary Fig. 4j).
Mice (CD1) were anesthetized by intraperitoneal injection of xylazine and positioned supine on a sterile surgical surface. A small midline incision was made in the neck to expose the trachea. GFP-expressing Pseudomonas aeruginosa (PA) was cultured overnight in LB broth supplemented with carbenicillin (100 µg/mL). A total volume of 30 µL PBS containing 0.5 × 10⁶ colony-forming units (CFU) was injected directly into the trachea using a sterile 28G insulin syringe. Following intratracheal instillation, mice received VT-109 (250 nmol/kg body weight) or vehicle by IV at 5- and 24-hours post-infection. Lung tissues were collected at 24 and 48 hours to assess treatment effects. The left lung was inflated with fixative and harvested for histological analysis, while the right lung was collected for bacterial quantification. For CFU analysis, the right lung was homogenized in 1 mL of sterile PBS using a bead-based tissue homogenizer. Homogenates were serially diluted and plated on LB agar containing carbenicillin (100 µg/mL). Plates were incubated overnight at 37 °C, and CFUs were counted the following day. […]

in vitro [3] = conditions: human, plasma
Experimental: as §1

Structure (SMILES) | static lung compliance ([1]; LD90 LPS, 250 nmol/kg bw i.v., at 10 cmH2O, n = 3‒4) | half maximal effective concentration (EC50) on the survival rate [1] | mortality ([1]; efficacious doses, starting at 100 nmol/kg bw or higher) | EC50 on the survival rate, equivalent for humans ([1]; human equivalent of 30 nmol/kg bw) | mice that died within 48 hours post-LPS challenge ([1]; lowest dose of VT-109 (1 nmol/kg)) | half-life at 5 μM (in vitro [2]) | remaining at 2 h, 5 μM (in vitro [2]) | neutrophils in the lung tissues (Pseudomonas aeruginosa; 5 × 10^5 CFU i.t., 250 nmol/kg bw at 5 hours post-challenge, 24 and 48 hours) | lung injury (histopathology) (Pseudomonas aeruginosa; 5 × 10^5 CFU i.t., 250 nmol/kg bw, 24 and 48 hours) | bacterial counts (Pseudomonas aeruginosa; both time points, did not reach statistical significance) | half-life at 5 μM (in vitro [3]) | remaining at 2 h, 5 μM (in vitro [3])
CC(C)(C)C[C@@H]1NC(=O)C[C@@H](O)CNC(=O)[C@@H]2C[C@@H]3CCCC[C@@H]3N2C(=O)[C@H](CC(C)(C)C)NC(=O)c2ccc(cc2)CNC(=O)C(C(C)(C)O)NC(=O)[C@@H](Cc2ccccc2)NC1=O (stereo partly drawn) [compound 109, (1^2S,1^3aS,1^7aS,3S,10S,13R,16S,20R)-13-benzyl-20-hydroxy-10-(2-hydroxypropan-2-yl)-3,16-dineopentyl-1^2,1^3,1^3a,1^4,1^5,1^6,1^7,1^7a-octahydro-1^1H-4,8,11,14,17,22-hexaaza-1(1,2)-indola-6(1,4)-benzenacyclotricosaphane-2,5,9,12,15,18,23-heptaone.] (cyclo([4Amb][tBuAla][Oic][GABOB(3R)][tBuAla][dF][ξVal(3-OH)])) | 0.043 ± 0.001 ml/cm H₂O | 30 nmol/kg bw | reduced mortality | 2.2 µg/kg bw | 90% | > 8 h | 91.9% | far fewer neutrophils | appeared uninjured | modest reduction | > 8 h | 101%
CC(C)(C)C[C@@H]1NC(=O)[C@](C)(NC(=O)c2ccc(CNC(=O)[C@H](N)C(C)(C)O)cc2)CCC/C=C\CCCC[C@@](C)(C(=O)N[C@H](CC(C)(C)C)C(=O)O)NC(=O)CC(O)CNC(=O)[C@@H]2C[C@@H]3CCCC[C@@H]3N2C1=O (stereo partly drawn) [compound 108, (2R)-2-((8S,18R,21S,23aS,27aS,28aS,Z)-18-(4-(((R)-2-amino-3-hydroxy-3-methylbutanamido)methyl)benzamido)-4-hydroxy-8,18-dimethyl-21-neopentyl-1,6,19,22-tetraoxo-1,2,3,4,5,6,7,8,9,10,11,12,15,16,17,18,19,20,21,22,23a,24,25,26,27,27a,28,28a-octacosahydro-[1,4,7,12]tetraazacyclotetracosino[4,5-a]indole-8-carboxamido)-4,4-dimethylpentanoic acid] (H-[dVal(3-OH)][4Amb][R5][tBuAla][Oic][X1][X2][d(tBuAla)]-OH; staple (Z) 3-7) | – | 308 nmol/kg bw | – | – | – | – | – | – | – | – | – | –

Source: PMC12627862, “Therapeutic targeting of endothelial calcium signaling accelerates the resolution of lung injury” (Signal Transduction and Targeted Therapy, 2025)
